Results as given in patent publication US20020137781A1, “Preparation and use of enantiomer-pure 2,4-disubstituted oxazolines” (priority 1999, published 2002).

Legend:
[1] = system: Panonychus ulmi; experiment: Effect against Panonychus ulmi (resistant to organophosphates und carbaryl); type: in vivo; conditions: 400 ppm spray on apple seedlings, after 14 days
Method: Apple seedlings are colonised with adult females of Panonychus ulmi. After seven days, the infected plants are sprayed with an aqueous emulsion spray mixture containing 400 ppm of the test compound until they are dripping wet, and cultivated in the greenhouse. After 14 days, they are evaluated. The percentage reduction of the population (% response) is determined by comparing the number of dead spider mites on the treated plants with those on the untreated plants.

[2] = system: Tetranychus urticae; experiment: Ovicidal effect on Tetranychus urticae; type: in vivo; conditions: 400 ppm spray on bean plants colonised with eggs, 6 days at 25° C.
Method: Young bean plants are colonised with females of Tetranychus urticae, which are removed again after 24 hours. The plants colonised with eggs are sprayed with an aqueous emulsion spray mixture containing 400 ppm of active ingredient. The plants are incubated for 6 days at 25° C. and then evaluated. The percentage reduction of the population (% response) is determined by comparing the total number of dead eggs, larvae, and adults on the treated plants with those on the untreated plants.

[3] = system: Blattella germanica; experiment: Effect against Blattella germanica; type: in vivo; conditions: application rate of 2 g/m^2, nymphs exposed 2 hours, evaluated after 48 hours
Method: Sufficient acetonic solution (0.1%) of the active ingredient is added to a Petri dish for the quantity thereof to correspond to an application rate of 2 g/m^2. When the solvent has evaporated, 20 nymphs of Blattella germanica (last nymph stage) are placed in the dish and exposed to the action of the test substance for 2 hours. The nymphs are then anaesthetised with CO2, added to a fresh Petri dish and kept in the dark at 25° and 50 to 70% humidity. After 48 hours, the insecticidal effect is evaluated by determining the mortality rate.

[4] = system: Musca domestica of an OP-resistant strain; experiment: Effect against Musca domestica; type: in vivo; conditions: 250 ppm in sugar cube, 25° C., after 24 hours, read-out: mortality rate (response)
Method: A sugar cube is treated with a solution of the test substance in such a way that the concentration of test substance in the sugar, after drying over night, is 250 ppm. The cube treated in this way is placed on an aluminium dish with wet cottonwool and 10 adult Musca domestica of an OP-resistant strain. It is covered with a beaker and incubated at 25° C. The mortality rate is determined after 24 hours.

[5] = system: Crocidolomia binotalis; experiment: Effect against Crocidolomia binotalis; type: in vivo; conditions: 400 ppm spray on cabbage plants, third-instar caterpillars, three days
Method: Young cabbage plants are sprayed with an aqueous emulsion spray mixture containing 400 ppm of active ingredient. After the spray coating has dried on, the cabbage plants are colonised with 10 third-instar caterpillars of Crocidolomia binotalis and placed in a plastic container. Three days later they are evaluated. The percentage reduction of the population and of the feeding damage (% response) is determined by comparing the total number of dead caterpillars and the feeding damage on the treated plants with those on the untreated plants.

[6] = system: Tetranychus urticae; experiment: Effect against Tetranychus urticae; type: in vivo; conditions: 400 ppm spray on bean plants, mixed population, 6 days at 25° C.
Method: Young bean plants are colonised with a mixed population of Tetranychus urticae and, one day later, are sprayed with an aqueous emulsion spray mixture containing 400 ppm of active ingredient. The plants are subsequently incubated for 6 days at 25° C. and then evaluated. The percentage reduction of the population (% response) is determined by comparing the total number of dead eggs, larvae, and adults on the treated plants with those on the untreated plants.

[7] = system: Heliothis virescens; experiment: Ovicidal effect on Heliothis virescens; type: in vivo; conditions: 400 ppm in acetone/water, eggs on filter paper immersed, after 6 days
Method: Eggs of Heliothis virescens deposited on filter paper are immersed briefly in a test solution comprising 400 ppm of the active ingredient to be tested in acetone/water. After the test solution has dried, the eggs are incubated in Petri dishes. After 6 days, the percentage hatching rate of the eggs is compared with that for untreated controls (% reduction in hatching rate).

[8] = system: Ctenocephalides felis; experiment: In vitro effect on eggs, larvae, or pupae of the cat flea Ctenocephalides felis; conditions: 15, 1.5, 0.15 and 0.015 ppm test solutions, after 21 days
Method: Acetonic test solutions are prepared containing test substances in concentrations of 15, 1.5, 0.15 and 0.015 ppm. 9.9 ml of each test solution is mixed with 14.85 g of culture medium for flea larvae and dried for about 12 hours. The slightly clumped, dry culture medium is mechanically pulverized again until it is homogeneous and free-flowing. It is then transferred to bottles for the breeding of fleas. To each bottle, 100 to 200 flea eggs are added, the bottles are loosely closed with a wad of cottonwool and placed in an incubator at 25 to 26° C. and a relative humidity of about 60%. After 21 days, the effect of the test substances in the different concentrations is evaluated and the lowest effective concentration determined using a stereomicroscope. The activity is evaluated on the basis of the hatching rate, larva development, pupation, and the hatching of young fleas. Enantiomers A of formula (I) show a pronounced effect in this test.

[9] = system: Aonidiella aurantii; experiment: Effect against Aonidiella aurantii; type: in vivo; conditions: 400 ppm, potato tubers immersed, 10 to 12 weeks
Method: Potato tubers are colonised with crawlers of Aonidiella aurantii. After about 2 weeks, the potatoes are immersed in an aqueous emulsion or suspension spray mixture containing 400 ppm of active ingredient. After the tubers have dried off, they are incubated in a plastic container. Evaluation is effected 10 to 12 weeks later by comparing the survival rate of the crawlers of the first secondary generation of the treated population with that of untreated control batches.

Fc1cccc(F)c1C1=NC(c2ccc(-c3ccc(C(F)(F)F)cc3)cc2)CO1 (single isomer, unassigned) [1.1, 2-(2,6-difluoro-phenyl)-4-(4′-trifluoromethylbiphenyl-4-yl)-4,5-dihydro-oxazole]
more than 80%: percentage reduction of the population (% response) [1] | percentage reduction of the population (% response) [2] | mortality rate (response) [3] | percentage reduction of the population and of the feeding damage (% response) [5] | percentage reduction of the population (% response) [6] | % reduction in hatching rate (response) [7] | response (survival rate of the crawlers of the first secondary generation vs untreated) [9]
> 80%: mortality at 250 ppm [4]
most active test substance: effect on hatching rate, larva development, pupation and hatching of young fleas (in words) [8]
